Like-named read-outs stand apart in the source and are kept apart here.
Columns and labels:
U‐251 MG cells [1] = test: Propidium iodide (PI) flow cytometry, cell membrane permeabilization; type: cell-based, human; conditions: 5 days; for PI: significance of cell death, Neg Ctrl v HNT: highest non-toxic concentration; for PI: significance of cell death, Neg Ctrl v 50 µM: highest toxic concentration 50 µM
Description: Propidium iodide (PI) is a DNA staining, cell membrane impermeable dye which was used to assess cell death via loss of membrane integrity and is used to indicate necrotic or late apoptotic cells. Stock solutions of PI dye (Merck, Ireland) were prepared at 10 μg/mL in PBS and stored at −20 °C. U‐251 MG cells were seeded in 96‐well plates at a seeding density of 2 x 10^3 cells per well (100 μL), as previously stated. […] Subsequently, the compound was collected in 15 ml falcon tubes. Cells were washed with PBS (100 μL), and the PBS was collected in corresponding tubes to ensure all cells are collected. The cells were collected using 0.25% trypsin‐EDTA (50 μL) with a 6‐min incubation and media neutralization (100 μL). Each tube was centrifuged at 1200rpm for 5 min to obtain a pellet. The supernatant was removed, and the pellet was resuspended in PBS and transferred to an Eppendorf tube. Ten microliters of PI stain (2.5 μg/ml) was added to the Eppendorf tubes, and the tubes were incubated for a period of 15 min. Cells were also treated using controls whereby the positive control used was DMEM and 20% DMSO and the negative control used was fresh media. The cells were then analyzed using flow cytometry (Beckmann Coulter, CytExpert version 2.4.0.28). Fluorescence was measured using the FL2 channel. PI was detected in the red channel which is R‐phycoerythrin (PE‐Cy5). PE was used in combination with fluorescein isothiocyanate (FITC) and is excited at a wavelength of 488 nm.
(§1) Each of the experiments was performed at least three independent times, with a minimum of six technical replicates per experiment. Statistical analysis was carried out using GraphPad Prism version 8.0.0 (GraphPad Softwares, Inc.). Curve fitting and the IC50 values were obtained through the dose–response curves using nonlinear regression. To determine if the dose–response curves were statistically distinct and not overlapping, extra sum‐of‐squares F‐test was used, and a p‐value was obtained. The effect of compound treatment on both cell lines was statistically compared via two‐way ANOVA with Tukey's post‐test. The CytExpert (Beckman Coulter) software was used for flow cytometry analysis. Graphs represent the % dead cells whereby the total number of dead cells was divided by the total cell population. The statistical significance of the flow cytometry results was determined via one‐way analysis of variance (ANOVA) with Dunnett's T3 multiple comparison post‐test. Data is presented as the mean ± standard error of mean (SEM). Summary of results from statistical analysis reports p‐values as follows: ≥0.05 (ns), 0.01–0.05 (*), 0.001–0.01 (**), […], and <0.0001(****).

HEK293 cells = test: MTT cell viability assay, noncancerous HEK293 cells, 5 days treatment; type: cell-based, human; conditions: for cytotoxicity / biological response in HEK293, in words: 5 days, up to 100 µM, threshold 50 µM; for IC50: 5 days treatment, 100–0 µM
Description: (§2) Dose–response curves for each of the pyrazolo[1,5‐α]pyrimidinones were performed to determine the cytotoxic effect of the compounds on a cancerous, U‐251 MG cell line and a noncancerous, HEK293 cell line. The synthesized pyrazolopyrimidinones were dissolved in DMSO (Merck) to obtain a stock solution which was stored at −20 °C. […] U‐251 MG and HEK293 cells were seeded at a density of 2 x 10^3 cells per well (100 μL) in a 96‐well plate (Sarstedt) and incubated for 24 h prior to each treatment to allow for cell adhesion. The stock solution was diluted in media to working concentrations of 100, 75, 50, 25, 10, 5, and 0.1 μM. Media on the seeded cells was then replaced with the working concentrations of the compound or the controls in a 96‐well plate (100 μL). The treated plate was incubated at 37 °C in the humidified incubator for 5 days. Cell viability was assessed after 5 days using the MTT assay. Dose–response curves were then plotted relative to the positive control whereby cells were treated 20% DMSO and a negative control whereby cells were maintained in fresh DMEM.
(§3) To determine the extent of the cytotoxic effect of the pyrazolopyrimidinone on each cell line, the cell viability at each working concentration was determined via the MTT assay (Merck). The working solution of MTT used was 5 mg MTT per 1 ml of PBS diluted in 9 ml of media. After 5 days of incubation, the treatment was removed from each of the wells and replaced with 100 μL of fresh MTT solution. The plate was then incubated for 3 h at 37 °C in a humidified incubator to allow the reduction of the yellow tetrazolium salt to purple formazan crystals. After the incubation, the MTT solution was removed from the wells and replaced with 100 μL of DMSO for 15 min to dissolve the formazan crystals. The absorbance was read at 570 nm using a spectrophotometric microplate reader (Thermo Fisher Scientific).
as §1

[2] = test system: U‐251 MG and HEK293 cells; test: Statistical comparison of dose–response in U‐251 MG versus HEK293 (selectivity, HIT criteria); type: cell-based, human; conditions: for Selectivity for cancer cells with IC50 < 50 [µM]‐Yes/No: HEK293 IC50 higher than U‐251 MG IC50, U‐251 MG IC50 below 50 µM; for All criteria met -Yes/No: HIT criteria and statistical testing, Table S1
U‐251 MG cells [3] = test: JC‐1 flow cytometry, mitochondrial membrane depolarization / apoptosis; type: cell-based, human; conditions: 5 days; for apoptosis observed (JC-1): example analysis, negative control 8.64 %; for JC-1: significance of cell death, Neg Ctrl v HNT / JC-1: significance of cell death, Neg Ctrl v 50 µM: U‐251 MG; for JC-1: significance of cell death, Neg Ctrl v 50 µM: highest toxic concentration 50 µM
Description: JC‐1 dye forms aggregates in healthy mitochondria which changes the fluorescent property of the dye. […] Stock solutions of JC‐1 dye (Merck) were prepared at 1 mg/mL in DMSO and stored at −20 °C. U‐251 MG cells were seeded in 6‐well plates (Sarstedt) at a seeding density of 2 x 10^4 cells per well (1000μL) after which cells were treated with drug concentrations (highest toxic, IC50, nontoxic). After 5 days incubation, the compound and wash step with PBS was collected in falcon tubes. The cells were then harvested by trypsinization (500 μL), incubated for a period of 6 min, neutralized with media (1000 μL), and pelleted at 1200rpm for 5 min. A JC‐1 working solution of 2 μg/mL was made up in DMEM and was light protected. The cell pellet was resuspended and stained with 2 μg/mL JC‐1 dye and incubated and protected from the light for a period of 10 min. Cells were then centrifuged at 1200rpm for 5 min. The supernatant was removed, and cells were washed with 1 mL of sterile PBS. This was repeated twice. […] Cells were also treated using controls whereby the positive control used was DMEM and 20% DMSO and the negative control used was fresh media. The cells were then analyzed using flow cytometry (Beckmann Coulter, CytExpert version 2.4.0.28). Fluorescence was measured using FL1 (FITC) (530 nm) and FL2 (PE) (595 nm) channels with emission.
as §1

U‐251 MG cells [4] = test: MTT cell viability assay, U‐251 MG glioblastoma cells, 5 days treatment; type: cell-based, human; conditions: 5 days treatment, 100–0 µM
Description: as §2, §3, §1

U‐251 MG cells [5] = test system: U‐251 MG cells; design: method as in He and colleagues (2021); conditions: after 2 days of treatment; ref He and colleagues (2021); read-out: cytotoxicity against U‐251 MG cells (IC50); cited from earlier work
[6] = highest non-toxic concentration

SMILES | cell membrane permeabilization‐dependent cell death (PI), in words (U‐251 MG cells [1]) | cytotoxicity / biological response in HEK293, in words (HEK293 cells) | Selectivity for cancer cells with IC50 < 50 [µM]‐Yes/No [2] | All criteria met -Yes/No [2] | apoptosis observed (JC-1) (U‐251 MG cells [3]; IC50 concentration) [%] | apoptosis observed (JC-1) (U‐251 MG cells [3]; [6]) [%] | apoptosis observed (JC-1) (U‐251 MG cells [3]; highest toxic concentration) [%] | PI: significance of cell death, Neg Ctrl v HNT (U‐251 MG cells [1]) | IC50 (HEK293 cells) [µM] | IC50 (HEK293 cells; Homo sapiens, HEK293, 120 h) [µM] | IC50 (U‐251 MG cells [4]) [µM] | IC50 (U‐251 MG cells [4]; Homo sapiens, U-251, 120 h) [µM] | JC-1: significance of cell death, Neg Ctrl v HNT (U‐251 MG cells [3]; [6]) | JC-1: significance of cell death, Neg Ctrl v 50 µM (U‐251 MG cells [3]) | PI: significance of cell death, Neg Ctrl v 50 µM (U‐251 MG cells [1]) | IC50 (U‐251 MG cells [5]) [µM]
O=c1cc(-c2cc(C(F)(F)F)cc(C(F)(F)F)c2)[nH]c2cc(-c3ccccc3)nn12 [Compound 5] | did not induce cell death by cell wall permeabilization | did not elicit any biological response | Yes | Yes | 15.55 | 14.34 | 52.97 | – | – | – | – | – | – | – | – | –
O=c1cc(-c2cc(C(F)(F)F)cc(C(F)(F)F)c2)[nH]c2cc(-c3ccc(Br)cc3)nn12 [Compound 7] | significant cell membrane permeabilization‐dependent cell death | did not elicit any biological response | Yes | Yes | – | – | – | * (0.01 to 0.05 (*)) | 60.9 | > 50 | 29.8 | < 50 | ns (≥0.05 (ns)) | **** (<0.0001(****)) | – | –
O=c1cc(-c2cc(C(F)(F)F)cc(C(F)(F)F)c2)[nH]c2cc(-c3ccc(C(F)(F)F)cc3)nn12 [Compound 9] | significant cell membrane permeabilization‐dependent cell death | did not elicit any biological response | Yes | Yes | – | – | – | ns (≥0.05 (ns)) | 54.4 | > 50 | 27.5 | 26.8 | ns (≥0.05 (ns)) | ** (0.001 to 0.01 (**)) | **** (<0.0001(****)) | –
O=c1cc(-c2cc(C(F)(F)F)cc(C(F)(F)F)c2)[nH]c2cc(-c3ccc([N+](=O)[O-])cc3)nn12 [Compound 10] | significant cell membrane permeabilization‐dependent cell death | did not elicit any biological response | Yes | Yes | – | – | – | ns (≥0.05 (ns)) | 73.8 | > 50 | – | – | * (0.01 to 0.05 (*)) | *** (0.001 to 0.01(***)) | – | –
O=c1cc(-c2ccccc2)[nH]c2cc(-c3ccccc3)nn12 [Compound 15] | – | – | No | No | – | – | – | – | – | 15.9 | – | 19.9 | – | – | – | 77.7
O=c1cc(-c2cc(C(F)(F)F)cc(C(F)(F)F)c2)[nH]c2cc(-c3cccc(Br)c3)nn12 [Compound 21, 5‐(3,5‐Bis(trifluoromethyl)phenyl)‐2‐(3‐bromophenyl)pyrazolo[1,5‐α]pyrimidin‐7(4¬H)‐one] | significant cell membrane permeabilization‐dependent cell death | – | Yes | Yes | – | – | – | ns (≥0.05 (ns)) | – | 19 | 0.71 | 0.714 | *** (0.001 to 0.01(***)) | *** (0.001 to 0.01(***)) | **** (<0.0001(****)) | –
O=c1cc(-c2cc(C(F)(F)F)cc(C(F)(F)F)c2)[nH]c2cc(-c3ccccc3Br)nn12 [Compound 22] | significant cell membrane permeabilization‐dependent cell death | – | Yes | Yes | – | – | – | – | – | 66.9 | 2.79 | 2.79 | ns (≥0.05 (ns)) | * (0.01 to 0.05 (*)) | **** (<0.0001(****)) | –

Reference: paper PMC12530846, “Development of Novel Anticancer Pyrazolopyrimidinones Targeting Glioblastoma” (Chemmedchem, 2025)
